From ChEMBL document CHEMBL1201862, “PubChem BioAssay data set” (2004)
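Results reflect a 48-hour exposure of cells in 96-well plates to compound at five concentrations. Here, GI50 denotes the concentration required for 50% inhibition of growth.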 Active and inactive are the calls of the source. Rule as the data show it: active = GI50 up to about 1.1 µM and inactive = higher.

Experiments:
Assay in all cases: NCI anticancer screen, dose series, 48 h
Hs-578T = system: Hs-578T
NCI/ADR-RES = system: NCI/ADR-RES
UO-31 = system: UO-31
COLO 205 = system: COLO 205
BT-549 = system: BT-549
HOP-62 = system: HOP-62
SF-295 = system: SF-295
SK-MEL-2 = system: SK-MEL-2
PC-3 = system: PC-3
LOX IMVI = system: LOX IMVI
HCT-116 = system: HCT-116
A549 = system: A549
CAKI-1 = system: CAKI-1
MDA-MB-435 = system: MDA-MB-435
ACHN = system: ACHN
SN12C = system: SN12C
CCRF-CEM = system: CCRF-CEM
OVCAR-8 = system: OVCAR-8
NCI-H522 = system: NCI-H522
SR = system: SR

| Compound | GI50 (Hs-578T) | GI50 (NCI/ADR-RES) | GI50 (UO-31) | GI50 (COLO 205) | GI50 (BT-549) | GI50 (HOP-62) | GI50 (SF-295) | GI50 (SK-MEL-2) | GI50 (PC-3) | GI50 (LOX IMVI) | GI50 (HCT-116) | GI50 (A549) | GI50 (CAKI-1) | GI50 (MDA-MB-435) | GI50 (ACHN) | GI50 (SN12C) | GI50 (CCRF-CEM) | GI50 (OVCAR-8) | GI50 (NCI-H522) | GI50 (SR) |
| --- | --- | --- | --- | --- | --- | --- | --- | --- | --- | --- | --- | --- | --- | --- | --- | --- | --- | --- | --- | --- |
| O=C(O)CCSCc1ccccc1 | > 100 µM (inactive) | > 100 µM (inactive) | > 100 µM (inactive) | > 100 µM (inactive) | > 100 µM (inactive) | > 100 µM (inactive) | > 100 µM (inactive) | > 100 µM (inactive) | > 100 µM (inactive) | > 100 µM (inactive) | > 100 µM (inactive) | > 100 µM (inactive) | > 100 µM (inactive) | > 100 µM (inactive) | > 100 µM (inactive) | > 100 µM (inactive) | > 100 µM (inactive) | > 100 µM (inactive) | > 100 µM (inactive) | – |
| CCNC(=S)NNC(=O)C12CC3CC(CC(C3)C1)C2 | > 100 µM (inactive) | > 100 µM (inactive) | > 100 µM (inactive) | > 100 µM (inactive) | > 100 µM (inactive) | > 100 µM (inactive) | > 100 µM (inactive) | > 100 µM (inactive) | > 100 µM (inactive) | > 100 µM (inactive) | > 100 µM (inactive) | > 100 µM (inactive) | > 100 µM (inactive) | > 100 µM (inactive) | > 100 µM (inactive) | > 100 µM (inactive) | > 100 µM (inactive) | > 100 µM (inactive) | > 100 µM (inactive) | – |
| Cn1c(=O)c2c(nc(-n3nc(-c4ccc(Cl)cc4)cc3N)n2C)n(C)c1=O | 22.4 µM (inactive) | 39.6 µM (inactive) | > 100 µM (inactive) | > 100 µM (inactive) | 44.5 µM (inactive) | 10.5 µM (inactive) | 25.5 µM (inactive) | > 100 µM (inactive) | > 100 µM (inactive) | – | 19.1 µM (inactive) | > 100 µM (inactive) | > 100 µM (inactive) | > 100 µM (inactive) | > 100 µM (inactive) | > 100 µM (inactive) | > 100 µM (inactive) | 18.1 µM (inactive) | – | 13 µM (inactive) |
| COc1ccc(C2c3cc4c(cc3OC(NNS(=O)(=O)c3ccc(C)cc3)C2C)OCO4)cc1 (stereo unspecified) | 27.7 µM (inactive) | – | 31.2 µM (inactive) | 36.3 µM (inactive) | 53.5 µM (inactive) | > 100 µM (inactive) | 21.9 µM (inactive) | 59.7 µM (inactive) | 21 µM (inactive) | 79.8 µM (inactive) | 45.9 µM (inactive) | 29.3 µM (inactive) | 65.9 µM (inactive) | 54.6 µM (inactive) | 74 µM (inactive) | > 100 µM (inactive) | 11.1 µM (inactive) | > 100 µM (inactive) | 11.8 µM (inactive) | 9.12 µM (inactive) |
| Cc1ccc(S(=O)(=O)NCCCCC(N)C(=O)O)cc1 (stereo unspecified) | > 100 µM (inactive) | > 100 µM (inactive) | > 100 µM (inactive) | > 100 µM (inactive) | > 100 µM (inactive) | > 100 µM (inactive) | > 100 µM (inactive) | – | > 100 µM (inactive) | – | > 100 µM (inactive) | > 100 µM (inactive) | > 100 µM (inactive) | > 100 µM (inactive) | > 100 µM (inactive) | > 100 µM (inactive) | > 100 µM (inactive) | > 100 µM (inactive) | > 100 µM (inactive) | – |
| CC(=O)OC1OC(c2ccoc2)C[C@@]12C1CCC3O[C@]3(C)[C@]1(C)[C@H](OC(C)=O)[C@H](OC(C)=O)[C@H]2C (stereo partly specified) | > 37.5 µM (inactive) | > 37.5 µM (inactive) | > 37.5 µM (inactive) | > 37.5 µM (inactive) | > 37.5 µM (inactive) | > 37.5 µM (inactive) | > 37.5 µM (inactive) | > 37.5 µM (inactive) | > 37.5 µM (inactive) | 28.1 µM (inactive) | > 37.5 µM (inactive) | > 37.5 µM (inactive) | > 37.5 µM (inactive) | – | > 37.5 µM (inactive) | > 37.5 µM (inactive) | 11.2 µM (inactive) | > 37.5 µM (inactive) | – | 18.1 µM (inactive) |
| Cc1ccc(C)n2c1nc1cc3ccccc3cc12 | 60.3 µM (inactive) | 49.4 µM (inactive) | 14.9 µM (inactive) | 3.52 µM (inactive) | 25.6 µM (inactive) | 21 µM (inactive) | 42.3 µM (inactive) | – | 32.4 µM (inactive) | – | 15.3 µM (inactive) | 28.6 µM (inactive) | – | 44.8 µM (inactive) | 29.6 µM (inactive) | 43 µM (inactive) | 33.4 µM (inactive) | 44.4 µM (inactive) | – | 43.4 µM (inactive) |
| O=C(O)C1C(C(=O)O)C2C(=O)C=CC1N2Cc1ccccc1 (stereo unspecified) | 2.82 µM (inactive) | 2.3 µM (inactive) | 1.71 µM (inactive) | 6.98 µM (inactive) | 4.57 µM (inactive) | 2.59 µM (inactive) | 11.3 µM (inactive) | 8.51 µM (inactive) | 5.58 µM (inactive) | 3.4 µM (inactive) | 3.68 µM (inactive) | 6.71 µM (inactive) | 3.94 µM (inactive) | 3.66 µM (inactive) | 4.18 µM (inactive) | 1.84 µM (inactive) | 0.383 µM (active) | 4.16 µM (inactive) | 1.87 µM (inactive) | – |
| COC(=O)C1CC2(CCC1=O)Cc1ccccc1C2=O (stereo unspecified) | > 100 µM (inactive) | 99.5 µM (inactive) | > 100 µM (inactive) | > 100 µM (inactive) | > 100 µM (inactive) | > 100 µM (inactive) | 82.2 µM (inactive) | > 100 µM (inactive) | > 100 µM (inactive) | > 100 µM (inactive) | 87.7 µM (inactive) | > 100 µM (inactive) | > 100 µM (inactive) | – | > 100 µM (inactive) | > 100 µM (inactive) | 50.4 µM (inactive) | > 100 µM (inactive) | 67.8 µM (inactive) | 37.8 µM (inactive) |
| COC1C=COC2(C)Oc3c(C)c(O)c4c(O)c(c(C5SCCS5)c(O)c4c3C2=O)NC(=O)C(C)=C/C=C\C(C)C2OC(C)(C)OC(C2C)C(C)C(OC(C)=O)C1C (stereo unspecified) | 15.8 µM (inactive) | 11.6 µM (inactive) | 7.41 µM (inactive) | 3.38 µM (inactive) | 3.73 µM (inactive) | 12.2 µM (inactive) | 5.32 µM (inactive) | 5.79 µM (inactive) | 5.31 µM (inactive) | 5.31 µM (inactive) | 5.05 µM (inactive) | 3.66 µM (inactive) | 6.12 µM (inactive) | 4.79 µM (inactive) | 3.15 µM (inactive) | 4.3 µM (inactive) | 5.86 µM (inactive) | 5.15 µM (inactive) | 5.02 µM (inactive) | – |
| COC(=O)C1(C)C=CC(=O)C2(C)C1C(O)C1OC3CC(c4ccoc4)C(C)=C3C1(C)C2CC(=O)O (stereo unspecified) | > 100 µM (inactive) | > 100 µM (inactive) | > 100 µM (inactive) | > 100 µM (inactive) | > 100 µM (inactive) | – | > 100 µM (inactive) | > 100 µM (inactive) | > 100 µM (inactive) | > 100 µM (inactive) | > 100 µM (inactive) | > 100 µM (inactive) | > 100 µM (inactive) | > 100 µM (inactive) | > 100 µM (inactive) | > 100 µM (inactive) | > 100 µM (inactive) | > 100 µM (inactive) | > 100 µM (inactive) | – |
